In patent US8143315B2, “Salts of the active substance rasagiline” (priority 2006, dated 2012):
Structures can show the parent of a compound that is named as a salt. Where two headings read alike, the source gives them in different places.

Assays:
[1] = for appearance / total content of chemical contaminations / water content: 40° C./75% relative humidity, open glass bottle; for appearance after storage under humid conditions: 40° C., 75% relative humidity in an open glass bottle (general description, time not stated)
[2] = for appearance: 60° C., closed glass bottle; for appearance / agglomerates of the salt as produced: immediately after production (general description); for formation of agglomerates after long storage: above all dry storage (general description); for agglomerates after storage: storage in a closed glass bottle (general description, time not stated)
[3] = tablets, 60° C. closed glass bottle
[4] = Particle size distribution by laser diffraction; conditions: for d(0.1) ± SD / d(0.5) ± SD / d(0.9) ± SD: average of three measurement cycles, dispersant low-viscosity paraffin
[5] = Determination of hygroscopicity (storage in humidity chambers); assay type: physicochemical; conditions: storage below 93% humidity, room temperature
[6] = Determination of solubility; conditions: for pH of the saturated solution / solubility: one-hour storage at 37° C.; for solubility in words: general description; for solubility: HPLC
[7] = Granulation 1 with mannitol (55%)
[8] = Direct compression without mannitol, 4 weeks
[9] = Direct compression without mannitol, initial value
[10] = Granulation 1 with mannitol (55%), 4 weeks
[11] = Granulation 1 with mannitol (55%), initial value
[12] = Granulation 2 without mannitol, 4 weeks
[13] = Granulation 2 without mannitol, initial value

Compound | solubility in citric acid solution [7] | solubility in citric acid solution (Granulation 2 without mannitol) | appearance ([1]; 4 weeks) | appearance ([1]; 8 weeks) | appearance ([1]; 12 weeks) | appearance ([2]; 4 weeks) | appearance ([2]; 8 weeks) | appearance ([2]; 12 weeks) | appearance / agglomerates of the salt as produced [2] | portion of decomposed active substance [3, 8] [%] | portion of decomposed active substance [3, 9] [%] | portion of decomposed active substance [3, 10] [%] | portion of decomposed active substance [3, 11] [%] | portion of decomposed active substance [3, 12] [%] | portion of decomposed active substance [3, 13] [%] | fraction ≦ 250 μm [4] [%] | d(0.1) ± SD [4] [μm] | d(0.5) ± SD [4] [μm] | d(0.9) ± SD [4] [μm] | water absorption (hygroscopicity) [5] | also measured
C#CCN[C@@H]1CCc2ccccc21.C#CCN[C@@H]1CCc2ccccc21.O=S(=O)(O)CCS(=O)(=O)O [Rasagiline edisilate, Rasagiline Edisilate] | very high | very high | unchanged | unchanged | unchanged | unchanged | unchanged | unchanged | white crystal powder which is free of agglomerates | 0.40 | 0.00 | 1.4 | 0.00 | 0.79 | 0.00 | 100.0 | 2.7 ± 0.01 | 12.8 ± 0.08 | 35.1 ± 0.36 | no water absorption | formation of agglomerates after long storage [2]: does not form any agglomerates; pH of the saturated solution ([6]; 0.1 N HCl): 1.0; pH of the saturated solution ([6]; Demineralized water): 4.4; pH of the saturated solution ([6]; USP acetate buffer, pH 4.5): 4.4; pH of the saturated solution ([6]; USP phosphate buffer, pH 6.8): 6.2; solubility in words [6]: dissolves very rapidly and well
C#CCN[C@@H]1CCc2ccccc21 [Rasagiline hydrochloride] |  |  |  |  |  |  |  |  |  |  |  |  |  |  |  |  |  |  |  |  | portion of decomposed active substance ([3]; Direct compression without mannitol, 4 weeks, hydrochloride): 1.5%; portion of decomposed active substance ([3]; Granulation 1 with mannitol (55%), 4 weeks, hydrochloride): 2.4%; portion of decomposed active substance ([3]; Granulation 2 without mannitol, 4 weeks, hydrochloride): 1.9%
C#CCN[C@@H]1CCc2ccccc21 [Rasagiline mesylate, rasagiline mesylate] | very high | very high |  |  |  |  |  |  |  | 0.46 | 0.00 | 2.6 | 0.00 | 1.3 | 0.00 | 100.0 | 13.6 ± 0.05 | 40.5 ± 0.25 | 85.7 ± 0.89 | absorbed large amounts of water and liquefied | appearance after storage under humid conditions [1]: sticky powder which is difficult to process; agglomerates after storage [2]: agglomerates
Rasagiline Oxalate |  |  |  |  |  | unchanged | unchanged | unchanged | white crystal powder which is free of agglomerates |  |  |  |  |  |  | 98.1 | 19.9 ± 0.02 | 53.0 ± 0.09 | 120.5 ± 0.66 | no water absorption | formation of agglomerates after long storage [2]: does not form any agglomerates; pH of the saturated solution ([6]; 0.1 N HCl): 1.2; solubility ([6]; 0.1 N HCl): 29.9 mg/mL; pH of the saturated solution ([6]; Demineralized water): 2.7; solubility ([6]; Demineralized water): 19.7 mg/mL; pH of the saturated solution ([6]; USP acetate buffer, pH 4.5): 3.4; solubility ([6]; USP acetate buffer, pH 4.5): 24.3 mg/mL; pH of the saturated solution ([6]; USP phosphate buffer, pH 6.8): 3.4; solubility ([6]; USP phosphate buffer, pH 6.8): 24.2 mg/mL; solubility in words [6]: much more difficult to dissolve
rasagiline phosphate | high | high |  |  |  |  |  |  |  | 2.9 | 0.00 | 3.0 | 0.00 | 2.5 | 0.00 |  |  |  |  |  | appearance after storage under humid conditions [1]: sticky powder which is difficult to process; total content of chemical contaminations ([1]; 4 weeks): 0.05%; water content ([1]; 4 weeks): 0.2%; total content of chemical contaminations ([1]; 8 weeks): 0.19%; water content ([1]; 8 weeks): 0.4%; total content of chemical contaminations ([1]; t0): 0.0%; water content ([1]; t0): 0.1%; agglomerates after storage [2]: agglomerates
rasagiline tartrate |  |  | unchanged | unchanged | unchanged | unchanged | unchanged | unchanged | undesired agglomerates | 2.5 | 0.00 | 3.1 | 0.00 | 2.8 | 0.00 | 97.2 | 5.0 ± 0.04 | 40.9 ± 0.57 | 161.2 ± 1.34 |  | 
